From PubChem BioAssay AID2060328 (Molecular Pharmacology Branch, DTP, NCI, 2025)
Where “and” joins values, the source holds several entries; their conditions need not be identical. Equal entries are not always repeated.

Tested on: MDA-MB-231 multicell spheroids, viability (%T/C)
Assay: Anticancer human tumor MDA-MB-231 cell line growth inhibition [IpAb];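 also: viability read after seven days of drug exposure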;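 as to viability, T/C: 100% = DMSO vehicle control viability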
Details: for viability, T/C: stronger effect = lower value
Source text: Combinatorial screen of targeted agents with ipatasertib and abemaciclib in multi-cell type tumor spheroids
A high-throughput screen of multi-cell type tumor spheroids was designed to identify active combinations of targeted small molecules and ipatasertib or abemaciclib. Complex spheroids include a stromal component modeled by human endothelial cells (HUVEC) and fibroblasts modeled by human mesenchymal stem cells (MSCs). The concentration ranges selected for each drug and investigational agent were based upon clinically achievable concentrations if the clinical Cmax of the agent was known.
Compounds. The drugs and investigational agents: ipatasertib (NSC767898), abemaciclib(NSC768073), selumetinib (NSC741078), trametinib (758246), adavosertib (NSC754352), everolimus (NSC733504), sapanisertib (NSC764658), vemurafenib (NSC761431), venetoclax (NSC766270), copanlisib (NSC809693), apelisib (NSC765974), palbociblib (NSC758247), vemurafenib (NSC761431), dabrafenib (NSC764134), ravoxertinib (NSC781343), BMS-387032 (NSC767048), sotorasib (NSC818433), talazoparib (NSC767125) and afursertib (NSC778305), were obtained from the National Cancer Institute (NCI) Developmental Therapeutics Program Chemical Repository. The FDA-approved anticancer drug set is available from the NCI Developmental Therapeutics Program. […] The stock solutions were prepared in dimethyl sulfoxide (DMSO, Sigma-Aldrich, St. Louis, MO, cat. D2650) at 800-fold the tested concentration and stored at -70 degrees C prior to their use. All drugs and investigational agents were tested over a range starting from a high concentration at or near the clinical Cmax and decreasing in half-log increments. If the clinical Cmax for an agent had not been determined, the highest concentration tested was 10 microM.
NCI60 Cell Culture. NCI60 cell lines were obtained from the NCI Developmental Therapeutics Program Tumor Repository. For each lot of cells, the Repository performed Applied Biosystems AmpFLSTR Identifiler testing with PCR amplification to confirm consistency with the published Identifier STR profile for each cell line. Cells were kept in continuous culture for no more than 20 passages. The optimal seeding densities for each of the cell lines at each time point assessed were determined prior to performing the concentration response studies. Briefly, the NCI60 human tumor lines were grown as monolayers in RPMI 1640 medium supplemented with 10% FBS and 2 mmol/L L-glutamine.
An additional 9 lines were from the NCI60 cell line panel including MDA-MB-231 breast carcinoma, MDA-MB-468 breast carcinoma, MCF7 breast carcinoma, Hs578T breast carcinoma, MALME-3M melanoma, SK-MEL-2 melanoma, SK-OV-3 ovarian carcinoma, DU-145 prostate carcinoma, PC-3 prostate carcinoma, all cell lines along with major genetic alterations are listed on Table 2. Pooled donor human umbilical vein endothelial cells (HUVEC, Lonza, cat. CC-2519) and human mesenchymal stem cells (hMSC, Lonza, cat. PT-2501) were purchased from Lonza (Walkersville, MD).
PDMR cell lines were grown in complete medium (DC medium): Dulbecco's modified Eagle's medium (DMEM)/F12 supplemented with 5% fetal bovine serum (FBS), 2 mM L-glutamine, 100 U/mL penicillin and 100 µg/ml streptomycin, 0.4 µg/ml hydrocortisone, 10 ng/ml epidermal growth factor (EGF) recombinant human protein, 24 µg/mL adenine, and 0.1 mg/mL primocin. During culture from frozen stock vials, PDMR cells were cultured in the same medium containing 10 µM Y-27632 (see Table 3). The PDCs were cultured in complete DMEM/F12 media without 10 microM Y-27632 dihydrochloride for at least two passages prior to the screen. The pooled donor HUVEC and hMSC were cultured in endothelial cell growth medium 2 (PromoCell, Heidelberg, Germany, cat. C-22011) and mesenchymal stem cell growth medium 2 (PromoCell, cat. C-28009), respectively. For all experiments, HUVEC and hMSC were used at passages </=5.
[…]

Question: Which viability, T/C (compound 0.0316 µM) does the source give for `Cc1nc(NC(=O)N2CCCC2C(N)=O)sc1-c1ccnc(C(C)(C)C(F)(F)F)c1` (stereo not given) here?
Answer: 92.2% and 88.6%

Question: What about the viability, T/C (compound 0.1 µM) of the same compound?
Answer: 74.9% and 72.1%

Question: What about the viability, T/C (compound 0.316 µM) of the same compound?
Answer: 68.2% and 66%

Question: And the viability, T/C (compound 1 µM)?
Answer: 65.7% and 73.6%

Question: And the viability, T/C (compound 3.16 µM)?
Answer: 66.8% and 71.2%

Question: And the viability, T/C (compound 10 µM)?
Answer: 62.7% and 60.5%

Question: And the IC50 (curve of compound)?
Answer: > 10000 nM

Question: For `Cn1cnc2c(F)c(Nc3ccc(Br)cc3Cl)c(C(=O)NOCCO)cc21`, which viability, T/C (compound 0.00949 µM) is on record?
Answer: 75.6% and 63.3%

Question: And the viability, T/C (compound 0.03 µM)?
Answer: 59.9% and 54.4%

Question: And the viability, T/C (compound 0.0949 µM)?
Answer: 54.8% and 50.4%

Question: And the viability, T/C (compound 0.3 µM)?
Answer: 52.9% and 41.3%

Question: And the viability, T/C (compound 0.949 µM)?
Answer: 27.7% and 30.4%

Question: What about the viability, T/C (compound 3 µM) of the same compound?
Answer: 14.4% and 19.2%

Question: And the IC50 (curve of compound)?
Answer: 186 nM and 72.9 nM

Question: Which viability, T/C (compound 0.0316 µM) does the source give for `Cn1ncc(Cl)c1-c1cc(C(=O)NC(CN)Cc2cccc(F)c2)sc1Cl` (stereo not given) here?
Answer: 100% and 101%

Question: What about the viability, T/C (compound 0.1 µM) of the same compound?
Answer: 89.6% and 87.9%

Question: And the viability, T/C (compound 0.316 µM)?
Answer: 75.6%

Question: And the viability, T/C (compound 1 µM)?
Answer: 57.4% and 57.5%

Question: And the viability, T/C (compound 3.16 µM)?
Answer: 37.4% and 30%

Question: And the viability, T/C (compound 10 µM)?
Answer: 0.23% and 0.17%

Question: And the IC50 (curve of compound)?
Answer: 1520 nM and 1330 nM

Question: Which results are given for `Cn1nccc1Nc1nccc(-c2ccn(C(CO)c3ccc(Cl)c(F)c3)c(=O)c2)n1` (stereo not given)?
Answer: viability, T/C (compound 0.0316 µM): 71% and 65.7%; viability, T/C (compound 0.1 µM): 59% and 53.1%; viability, T/C (compound 0.316 µM): 49.6% and 47.1%; viability, T/C (compound 1 µM): 48% and 38%; viability, T/C (compound 3.16 µM): 30.3% and 33.5%; viability, T/C (compound 10 µM): 23.5% and 21.3%; IC50 (curve of compound): 406 nM and 209 nM

Question: How did the viability, T/C (compound 0.000316 µM) turn out when `Cn1ncnc1[C@H]1c2n[nH]c(=O)c3cc(F)cc(c23)N[C@@H]1c1ccc(F)cc1` was run?
Answer: 99.2% and 96.9%

Question: What about the viability, T/C (compound 0.001 µM) of the same compound?
Answer: 92.1% and 94%

Question: And the viability, T/C (compound 0.00316 µM)?
Answer: 81.4% and 85.3%

Question: And the viability, T/C (compound 0.01 µM)?
Answer: 79.3% and 79.6%

Question: What about the viability, T/C (compound 0.0316 µM) of the same compound?
Answer: 77.7% and 75.4%

Question: What about the viability, T/C (compound 0.1 µM) of the same compound?
Answer: 67.3% and 69.8%

Question: What about the IC50 (curve of compound) of the same compound?
Answer: > 100 nM

Question: With `Cn1cnc2c(F)c(Nc3ccc(Br)cc3Cl)c(C(=O)NOCCO)cc21` + CC(C)NCC(C(=O)N1CCN(c2ncnc3c2C(C)CC3O)CC1)c1ccc(Cl)cc1 as the compound, how does the IC50 (curve of first compound, second compound 0.1 µM) read?
Answer: < 9.49 nM

Question: And the IC50 (curve of first compound, second compound 0.316 µM)?
Answer: < 9.49 nM

Question: What about the IC50 (curve of first compound, second compound 1 µM) of the same compound?
Answer: < 9.49 nM

Question: What about the IC50 (curve of first compound, second compound 3.16 µM) of the same compound?
Answer: < 9.49 nM

Question: What about the IC50 (curve of first compound, second compound 10 µM) of the same compound?
Answer: < 9.49 nM

Question: What about the viability, T/C (second compound 0.1 µM, first compound 0.00949 µM) of the same compound?
Answer: 43.2%

Question: What about the viability, T/C (second compound 0.1 µM, first compound 0.03 µM) of the same compound?
Answer: 36.2%

Question: And the viability, T/C (second compound 0.1 µM, first compound 0.0949 µM)?
Answer: 34.3%

Question: What about the viability, T/C (second compound 0.1 µM, first compound 0.3 µM) of the same compound?
Answer: 27.8%

Question: And the viability, T/C (second compound 0.1 µM, first compound 0.949 µM)?
Answer: 23.4%

Question: And the viability, T/C (second compound 0.1 µM, first compound 3 µM)?
Answer: 13%

Question: What about the viability, T/C (second compound 0.316 µM, first compound 0.00949 µM) of the same compound?
Answer: 38%

Question: And the viability, T/C (second compound 0.316 µM, first compound 0.03 µM)?
Answer: 31.8%

Question: And the viability, T/C (second compound 0.316 µM, first compound 0.0949 µM)?
Answer: 29.5%

Question: What about the viability, T/C (second compound 0.316 µM, first compound 0.3 µM) of the same compound?
Answer: 24.1%

Question: What about the viability, T/C (second compound 0.316 µM, first compound 0.949 µM) of the same compound?
Answer: 20.4%

Question: What about the viability, T/C (second compound 0.316 µM, first compound 3 µM) of the same compound?
Answer: 11.6%

Question: And the viability, T/C (second compound 1 µM, first compound 0.00949 µM)?
Answer: 31.2%

Question: And the viability, T/C (second compound 1 µM, first compound 0.03 µM)?
Answer: 28.2%

Question: And the viability, T/C (second compound 1 µM, first compound 0.0949 µM)?
Answer: 24.8%

Question: And the viability, T/C (second compound 1 µM, first compound 0.3 µM)?
Answer: 23%

Question: What about the viability, T/C (second compound 1 µM, first compound 0.949 µM) of the same compound?
Answer: 17.5%

Question: And the viability, T/C (second compound 1 µM, first compound 3 µM)?
Answer: 10.5%

Question: And the viability, T/C (second compound 3.16 µM, first compound 0.00949 µM)?
Answer: 25%

Question: And the viability, T/C (second compound 3.16 µM, first compound 0.03 µM)?
Answer: 22.6%

Question: And the viability, T/C (second compound 3.16 µM, first compound 0.0949 µM)?
Answer: 20.6%

Question: And the viability, T/C (second compound 3.16 µM, first compound 0.3 µM)?
Answer: 18.4%

Question: And the viability, T/C (second compound 3.16 µM, first compound 0.949 µM)?
Answer: 14.5%

Question: And the viability, T/C (second compound 3.16 µM, first compound 3 µM)?
Answer: 7.58%

Question: And the viability, T/C (second compound 10 µM, first compound 0.00949 µM)?
Answer: 18.9%

Question: And the viability, T/C (second compound 10 µM, first compound 0.03 µM)?
Answer: 16.9%

Question: What about the viability, T/C (second compound 10 µM, first compound 0.0949 µM) of the same compound?
Answer: 13.8%

Question: And the viability, T/C (second compound 10 µM, first compound 0.3 µM)?
Answer: 13.1%

Question: What about the viability, T/C (second compound 10 µM, first compound 0.949 µM) of the same compound?
Answer: 8.94%

Question: What about the viability, T/C (second compound 10 µM, first compound 3 µM) of the same compound?
Answer: 4.82%
